From patent publication US20030105048A1, “Oligobenzimidazole derivatives and their use as DNA transfecting agents” (priority 1999, published 2003)

Key:
DNA plasmid = test: Agarose gel electrophoresis of DNA plasmid complexed with derivative or cationic lipid; format: binding; details: increasing amounts per μg of DNA; revealed with ethidium bromide
Procedure: For this, an agarose gel of a DNA plasmid mixed with increasing amounts of derivative (1) or (2) according to the invention was prepared (see FIG. 4). […] Two bands could thus be observed by virtue of the specific spectral absorption properties of the derivatives according to the present invention:
It is observed that the DNA migrates in an identical manner to the naked DNA, irrespective of the concentration of derivative 20 according to the invention.

mouse muscles = test: In vivo intramuscular transfection of plasmid pXL3031 (luciferase expression) with or without electrotransfer; parameters: species or system C57B16 mice; details: 4 μg of DNA/muscle, 7 days
Procedure: The plasmid used is the same as the one described above for Example 5 (pXL3031). Similarly, the cytofecting solutions are prepared in the same way as in Example 5.
25 μl of solutions of derivative (1)/DNA complexes are injected intramuscularly to C57B16 mice, at a rate of 4 μg of DNA/mouse muscle.
The transfection efficacy is evaluated 7 days 5 after transfection by measuring the expression of luciferase according to the recommendations given for using the Promega kit (Luciferase Assay System). The muscles are ground in 1.5 ml of lysis buffer (with protease inhibitors). After assaying the luciferase activity on 10 μl, the results are expressed as RLU/10 μl/10 sec.
The in vivo luciferase activity results in mouse muscles, expressed in RLU/10 μl/10 sec, are collated in the table below: […]

HeLa cells = test: In vitro transfection of plasmid pXL3031 (luciferase expression) in the presence and absence of serum; format: cell-based; details: 48 hours after transfection
Procedure: The plasmid used The DNA used is the plasmid pXL3031 (see FIG. 7) as a solution in a mixture of 5% dextrose and 10 mM sodium chloride at a concentration of 0.5 mg/ml or 1.0 mg/ml. This plasmid contains the luc gene encoding luciferase under the control of the cytomegalovirus P/E CMV promoter. Its size is 3671 bp. The plasmid pXL3031 was purified according to the methods described in patent application WO 97/35002.
The nucleic acid solutions are diluted to 20 μg/ml in physiological saline (0.15 M sodium chloride).
The oligobenzimidazole derivative (2) according to the invention is dissolved in water to a concentration ranging from 40 to 160 μmol and mixed, volume for volume, with the DNA solution. The final saline concentration is 75 mmol.
HeLa cells are cultured under suitable conditions on 24-well microplates (2 cm^2/well) and are transfected while they are in the exponential growth phase and at 50-70% of confluence.
The cells are washed with twice 0.5 cm^3 of medium free of seric proteins and are regrown either in serum-free medium (transfection in the absence of serum) or in whole medium (transfection in the presence of serum). 0.05 cm^3 of cytofecting mixture (0.5 μg of DNA/well) are added to the cells (3 wells/DNA-vector condition). When the cells are transfected in the absence of serum, the growth medium is supplemented, 2 hours after the transfection, with a suitable amount of serum.
The transfecting efficacy is evaluated 48 hours after transfection by measuring the expression of luciferase according to the recommendations given for using the Promega kit (“Luciferase Assay System”). The toxicity of the cytofecting mixtures is estimated by measuring the protein concentrations in cell lysates.
The in vitro luciferase activity results relative to the proteins expressed in RLU/5 μl/10 s/μg of protein (written more simply as RLU/μg of protein, “RLU” meaning “relative light unit”) are given in the table below: […]

| Structure (SMILES) | electrophoretic mobility of complexes with DNA on agarose gel (DNA plasmid) | in vivo luciferase activity in mouse muscles (mouse muscles; 0.2 nmol/μg of DNA, with electrotransfer) | in vivo luciferase activity in mouse muscles (mouse muscles; 0.2 nmol/μg of DNA, without electrotransfer) | in vivo luciferase activity in mouse muscles (mouse muscles; 0.5 nmol/μg of DNA, with electrotransfer) | in vivo luciferase activity in mouse muscles (mouse muscles; 0.5 nmol/μg of DNA, without electrotransfer) | in vivo luciferase activity in mouse muscles (mouse muscles; 1 nmol/μg of DNA, with electrotransfer) | in vivo luciferase activity in mouse muscles (mouse muscles; 1 nmol/μg of DNA, without electrotransfer) | in vitro luciferase activity (HeLa cells; 4 nmol/μg of DNA, + serum) | in vitro luciferase activity (HeLa cells; 4 nmol/μg of DNA, absence of serum) | in vitro luciferase activity (HeLa cells; 8 nmol/μg of DNA, + serum) | in vitro luciferase activity (HeLa cells; 8 nmol/μg of DNA, absence of serum) | in vitro luciferase activity (HeLa cells; 10 nmol/μg of DNA, + serum) | in vitro luciferase activity (HeLa cells; 10 nmol/μg of DNA, absence of serum) |
| --- | --- | --- | --- | --- | --- | --- | --- | --- | --- | --- | --- | --- | --- |
| CCCCCCCCCCCCCCCCCCNC(=O)Oc1ccc(-c2nc3ccc(-c4nc5ccc(N6CCN(C)CC6)cc5[nH]4)cc3[nH]2)cc1 [Derivative (1), 4-[6-(4-methyl-1-piperazinyl)-1H,3′H-[2,5′]bisbenzimidazol-2′-yl]-1-octadecylcarbamoyloxy phenyl] | same electrophoretic mobility properties as the naked DNA | 1.14 E+07 RLU/10 μl/10 sec | 3.45 E+04 RLU/10 μl/10 sec | 2.19 E+07 RLU/10 μl/10 sec | 1.67 E+04 RLU/10 μl/10 sec | 1.82 E+07 RLU/10 μl/10 sec | 1.06 E+04 RLU/10 μl/10 sec |  |  |  |  |  |  |
| CCCCCCCCCCCCNC(=O)Oc1ccc(-c2nc3ccc(-c4nc5ccc(N6CCN(C)CC6)cc5[nH]4)cc3[nH]2)cc1 [Derivative (2), 4-[6-(4-methyl-1-piperazinyl)-1H,3′H-[2,5′]bisbenzimidazol-2′-yl]-1-dodecylcarbamoyloxy phenyl] | same electrophoretic mobility properties as the naked DNA |  |  |  |  |  |  | 9.8 E+02 RLU/μg of protein | 1.3 E+03 RLU/μg of protein | 4.6 E+02 RLU/μg of protein | 1.7 E+03 RLU/μg of protein | 1.1 E+02 RLU/μg of protein | 1.7 E+03 RLU/μg of protein |
| CCCCCCCCCCCCCCN(CCCCCCCCCCCCCC)C(=O)CNC(=O)CNCCN(CCN)CCN [cationic lipid, reference compound] | varies with the amount of cationic lipid present with the DNA |  |  |  |  |  |  |  |  |  |  |  |  |
